Article PMC3577830, “Crystal Structure of Silkworm Bombyx mori JHBP in Complex With 2-Methyl-2,4-Pentanediol: Plasticity of JH-Binding Pocket and Ligand-Induced Conformational Change of the Second Cavity in JHBP” (PLoS ONE, 2013)

Columns and labels:
[1] = target: T1, juvenile hormone-binding protein (JHBP) (Bombyx mori, UniProt Q9U556); test: crystal structure ([…] Å); competition with 3H-JH III (charcoal assay)
T1 construct: gene hJHBP; recombinant mature JHBP

[2] = target: T1, juvenile hormone-binding protein (JHBP); test: radioligand competition with 3H-JH III (dextran-coated charcoal)

Row | IC50 [1] [µM] | Structure (SMILES) | IC50 [2] [µM]
1 | 160 | CC(O)CC(C)(C)O (racemic) [MPD, 2-methyl-2,4-pentanediol] | –
2 | – | COC(C)(C)CCC[C@H](C)C/C=C/C(C)=C/C(=O)OC(C)C (racemic) [methoprene] | 35
